Structures can show the parent of a compound that is named as a salt.

We go through 10 compounds from patent US10329294B2, “Pyrazolopyrimidine inhibitors of IRAK4 activity” (MERCK SHARP & DOHME CORP., priority 2015, dated 2019).

Sequence of IRAK4 (Q9NWZ3 whole entry): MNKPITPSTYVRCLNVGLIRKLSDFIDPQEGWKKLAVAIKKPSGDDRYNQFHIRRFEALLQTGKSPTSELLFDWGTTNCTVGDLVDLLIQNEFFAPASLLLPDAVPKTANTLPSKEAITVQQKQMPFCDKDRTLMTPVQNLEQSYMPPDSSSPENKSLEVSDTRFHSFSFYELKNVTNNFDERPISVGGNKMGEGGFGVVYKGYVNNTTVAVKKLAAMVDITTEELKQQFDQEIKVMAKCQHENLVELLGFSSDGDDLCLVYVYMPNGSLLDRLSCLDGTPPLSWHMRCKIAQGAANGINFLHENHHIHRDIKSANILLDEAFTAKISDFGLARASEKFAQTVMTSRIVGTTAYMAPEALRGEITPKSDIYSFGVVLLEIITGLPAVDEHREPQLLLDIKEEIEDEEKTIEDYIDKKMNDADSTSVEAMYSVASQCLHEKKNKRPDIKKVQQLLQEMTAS

The first assay concerns the target IRAK4 (Homo sapiens (Human), UniProt Q9NWZ3). As to the kind of experiment: IRAK4 Kinase Assay. The format is biochemical. As to conditions: IMAP fluorescence polarization, 0.5 nM GST tagged IRAK4, 100 μM ATP, 30 minutes at 25° C.; read-out: IRAK4 IC50. (In general: Polarisation of emitted light reports the rotation of a fluorescent probe.)
Method: The kinase activity of IRAK4 is determined by its ability to catalyze the phosphorylation of a fluorescent polypeptide substrate. The extent of phosphorylation is measured using the IMAP technology (Molecular Devices) where the phosphorylated fluorescent substrate binds to the large M(III)-based nanoparticles which reduces the rotational speed of the substrate and thus increases its fluorescent polarization (FP).
20 μL reaction mixture contains 10 mM TriHCl, pH 7.2, 0.5 nM GST tagged IRAK4 (SignalChem), 100 nM fluorescent peptide substrate (RP7030, Molecular Devices), 100 μM ATP, 1 mM DDT, 1 mM MgCl2, and 0.01% Tween 20. The reaction is initiated by the addition of ATP. After incubation for 30 minutes at 25° C., 60 μL of Progressive IMAP Reagent (Molecular Devices) is added to stop the reaction. Change in RP7030's FP is determined by a FP reader (Analyst HT, LJL BioSystems).
Consider `CC(C)(C)n1cc(NC(=O)c2cnn3ccc(N[C@@H]4CCCC[C@@H]4O)nc23)c(C(F)(F)F)n1` [Example 48, N-[1-tert-butyl-3-(trifluoromethyl)-1H-pyrazol-4-yl]-5-{[(1R,2S)-2-hydroxycyclohexyl]amino} pyrazolo[1,5-a]pyrimidine-3-carboxamide trifluoroacetate], for which the concentration for half-maximal inhibition (IC50) (commonly the midpoint of a concentration-inhibition curve) was 259 nM.
Same read-out and setting: next, `CC(C)(C)n1cc(NC(=O)c2cnn3ccc(N[C@@H]4CCCC(F)(F)[C@@H]4N)nc23)c(C(F)(F)F)n1` [Example 49, 5-{[(1R,2R)-2-amino-3,3-difluorocyclohexyl]amino}-N-[1-tert-butyl-3-(trifluoromethyl)-1H-pyrazol-4-yl]pyrazolo[1,5-a]pyrimidine-3-carboxamide trifluoroacetate]: 890 nM.
Still for that read-out and setting: then `CC(C)(C)n1cc(NC(=O)c2cnn3ccc(N4CC5CCC4CN5)nc23)c(C(F)(F)F)n1` (stereo not shown) [Example 50, N-[1-tert-butyl-3-(trifluoromethyl)-1H-pyrazol-4-yl]-5-(2,5-diazabicyclo[2.2.2]oct-2-yl)pyrazolo[1,5-a]pyrimidine-3-carboxamide trifluoroacetate], with 90 nM; and `CC(C)n1cc(NC(=O)c2cnn3ccc(N4CCNCC5(CC5)C4)nc23)c(C(F)(F)F)n1` [Example 51, 5-(5,8-diazaspiro[2.6]non-5-yl)-N-[1-(1-methylethyl)-3-(trifluoromethyl)-1H-pyrazol-4-yl]pyrazolo[1,5-a]pyrimidine-3-carboxamide], with 32 nM.
The same measure, in the same setting: then `CC(C)n1cc(NC(=O)c2cnn3ccc(N4CC5CCC4CN5)nc23)c(C(F)(F)F)n1` (stereo not shown) [Example 53, 5-(2,5-diazabicyclo[2.2.2]oct-2-yl)-N-[1-(1-methylethyl)-3-(trifluoromethyl)-1H-pyrazol-4-yl]pyrazolo[1,5-a]pyrimidine-3-carboxamide], with 48 nM.
As to `CC(C)n1cc(NC(=O)c2cnn3ccc(N[C@@H]4CCCC(F)(F)[C@@H]4N)nc23)c(C(F)(F)F)n1` [Example 56, 5-{[(1R,2R)-2-amino-3,3-difluorocyclohexyl]amino}-N-[1-(1-methylethyl)-3-(trifluoromethyl)-1H-pyrazol-4-yl]pyrazolo[1,5-a]pyrimidine-3-carboxamide trifluoroacetate], the IC50 turned out to be 626 nM.
Same read-out and setting: next, `O=C(Nc1cn(CC(F)(F)F)nc1C(F)(F)F)c1cnn2ccc(N[C@@H]3CCCC[C@@H]3O)nc12` [Example 57, 5-{[(1R,2S)-2-hydroxycyclohexyl]amino}-N-[1-(2,2,2-trifluoroethyl)-3-(trifluoromethyl)-1H-pyrazol-4-yl]pyrazolo[1,5-a]pyrimidine-3-carboxamide trifluoroacetate]: 320 nM; `O=C(Nc1cn(CC(F)(F)F)nc1C(F)(F)F)c1cnn2ccc(N3CC4CCC3CN4)nc12` (stereo not shown) [Example 58, 5-(2,5-diazabicyclo[2.2.2]oct-2-yl)-N-[1-(2,2,2-trifluoroethyl)-3-(trifluoromethyl)-1H-pyrazol-4-yl]pyrazolo[1,5-a]pyrimidine-3-carboxamide trifluoroacetate]: 267 nM; `O=C(Nc1cn(CC(F)F)nc1C(F)(F)F)c1cnn2ccc(N3CCNCC3)nc12` [Example 62, N-[1-(2,2-difluoroethyl)-3-(trifluoromethyl)-1H-pyrazol-4-yl]-5-piperazin-1-ylpyrazolo[1,5-a]pyrimidine-3-carboxamide trifluoroacetate]: 29 nM.

Staying with this assay, now noted: IRAK4 IC50 (nM), IMAP fluorescence polarization, 0.5 nM GST tagged IRAK4, 100 μM ATP, 30 minutes at 25° C.
`CC(C)n1cc(NC(=O)c2cnn3ccc(N[C@@H]4CCCC[C@@H]4O)nc23)c(C(F)(F)F)n1` [Example 52, 5-{[(1R,2S)-2-hydroxycyclohexyl]amino}-N-[1-(1-methylethyl)-3-(trifluoromethyl)-1H-pyrazol-4-yl]pyrazolo[1,5-a]pyrimidine-3-carboxamide]: half-maximal inhibition (IC50) was put at 64 nM.
